Species: Rattus norvegicus
Experiment: DrugMatrix - Regimen: Daily Repeat
Format: toxicity, organism-based, Sprague-Dawley
Set-up: regimen Daily Repeat, gender Male, age 6-8 weeks
Conditions: in vivo, iv, vehicle 100 % SALINE; for ABSOLUTE BASOPHIL / ABSOLUTE EOSINOPHIL / ABSOLUTE LYMPHOCYTE / ABSOLUTE MONOCYTE / ABSOLUTE SEGMENTED NEUTROPHIL / BASOPHIL / EOSINOPHIL / ERYTHROCYTE COUNT / HEMATOCRIT / HEMOGLOBIN / LYMPHOCYTE / MEAN CORPUSCULAR HEMOGLOBIN / MEAN CORPUSCULAR HEMOGLOBIN CONCENTRATION / MONOCYTE / NEUTROPHIL / NUCLEATED RED BLOOD CELLS / PLATELET COUNT: tissue Blood; for ALANINE AMINOTRANSFERASE / ALBUMIN / ALKALINE PHOSPHATASE / ASPARTATE AMINOTRANSFERASE / BLOOD UREA NITROGEN / CARBON DIOXIDE / CHLORIDE / CHOLESTEROL / CREATINE PHOSPHOKINASE / CREATININE / GLUCOSE / LIPASE / PHOSPHORUS / POTASSIUM / SODIUM / TOTAL BILIRUBIN / TOTAL PROTEIN / URIC ACID: tissue Plasma
[1] = 0 mg/kg, 72 h, dose level Control, time 3 day
[2] = 0 mg/kg, 120 h, dose level Control, time 5 day
[3] = 5 mg/kg, 72 h, dose level High, time 3 day

CCc1c2c(nc3ccc(OC(=O)N4CCC(N5CCCCC5)CC4)cc13)-c1cc3c(c(=O)n1C2)COC(=O)[C@]3(O)CC [IRINOTECAN]
ABSOLUTE BASOPHIL [1]: 0 CELLS/uL
ABSOLUTE EOSINOPHIL [1]: 23.17 CELLS/uL
ABSOLUTE LYMPHOCYTE [1]: 12448.83 CELLS/uL
ABSOLUTE MONOCYTE [1]: 259.5 CELLS/uL
ABSOLUTE SEGMENTED NEUTROPHIL [1]: 1635.17 CELLS/uL
BASOPHIL [1]: 0%
EOSINOPHIL [1]: 0.17%
ERYTHROCYTE COUNT [1]: 5.35 x10E6/uL
HEMATOCRIT [1]: 34.85%
HEMOGLOBIN [1]: 13.72 G/DL
LYMPHOCYTE [1]: 86.5%
MEAN CORPUSCULAR HEMOGLOBIN [1]: 25.67 pg
MEAN CORPUSCULAR HEMOGLOBIN CONCENTRATION [1]: 39.38 G/DL
MONOCYTE [1]: 1.83%
NEUTROPHIL [1]: 11.5%
NUCLEATED RED BLOOD CELLS [1]: 0 /100WBC
PLATELET COUNT [1]: 1248.67 x10E3/uL
ALANINE AMINOTRANSFERASE [1]: 56.5 u/L
ALBUMIN [1]: 4.27 G/DL
ALKALINE PHOSPHATASE [1]: 334 u/L
ASPARTATE AMINOTRANSFERASE [1]: 85.5 u/L
BLOOD UREA NITROGEN [1]: 16.33 mg/dL
CARBON DIOXIDE [1]: 26.5 mmol/L
CHLORIDE [1]: 100.17 MEQ/L
CHOLESTEROL [1]: 70.33 mg/dL
CREATINE PHOSPHOKINASE [1]: 339.5 u/L
CREATININE [1]: 0.18 mg/dL
GLUCOSE [1]: 155.17 mg/dL
LIPASE [1]: 9.5 u/L
PHOSPHORUS [1]: 13.55 mg/dL
POTASSIUM [1]: 6.68 MEQ/L
SODIUM [1]: 143.87 MEQ/L
TOTAL BILIRUBIN [1]: 0.2 mg/dL
TOTAL PROTEIN [1]: 5.98 G/DL
URIC ACID [1]: 1.53 mg/dL
ABSOLUTE BASOPHIL [2]: 0 CELLS/uL
ABSOLUTE EOSINOPHIL [2]: 16.17 CELLS/uL
ABSOLUTE LYMPHOCYTE [2]: 10653.67 CELLS/uL
ABSOLUTE MONOCYTE [2]: 17.17 CELLS/uL
ABSOLUTE SEGMENTED NEUTROPHIL [2]: 746.33 CELLS/uL
BASOPHIL [2]: 0%
EOSINOPHIL [2]: 0.17%
ERYTHROCYTE COUNT [2]: 5.88 x10E6/uL
HEMATOCRIT [2]: 36.68%
HEMOGLOBIN [2]: 14.6 G/DL
LYMPHOCYTE [2]: 91.83%
MEAN CORPUSCULAR HEMOGLOBIN [2]: 24.85 pg
MEAN CORPUSCULAR HEMOGLOBIN CONCENTRATION [2]: 39.8 G/DL
MONOCYTE [2]: 0.17%
NEUTROPHIL [2]: 7.83%
NUCLEATED RED BLOOD CELLS [2]: 0 /100WBC
PLATELET COUNT [2]: 1219.5 x10E3/uL
ALANINE AMINOTRANSFERASE [2]: 45.5 u/L
ALBUMIN [2]: 4.23 G/DL
ALKALINE PHOSPHATASE [2]: 330.17 u/L
ASPARTATE AMINOTRANSFERASE [2]: 93.33 u/L
BLOOD UREA NITROGEN [2]: 18 mg/dL
CARBON DIOXIDE [2]: 25.5 mmol/L
CHLORIDE [2]: 96.33 MEQ/L
CHOLESTEROL [2]: 73.5 mg/dL
CREATINE PHOSPHOKINASE [2]: 434 u/L
CREATININE [2]: 0.2 mg/dL
GLUCOSE [2]: 148.83 mg/dL
LIPASE [2]: 10 u/L
PHOSPHORUS [2]: 12.63 mg/dL
POTASSIUM [2]: 6.66 MEQ/L
SODIUM [2]: 139.78 MEQ/L
TOTAL BILIRUBIN [2]: 0.15 mg/dL
TOTAL PROTEIN [2]: 6.1 G/DL
URIC ACID [2]: 2.02 mg/dL
ABSOLUTE BASOPHIL [3]: 0 CELLS/uL
ABSOLUTE EOSINOPHIL [3]: 80.67 CELLS/uL
ABSOLUTE LYMPHOCYTE [3]: 9024 CELLS/uL
ABSOLUTE MONOCYTE [3]: 170 CELLS/uL
ABSOLUTE SEGMENTED NEUTROPHIL [3]: 658.67 CELLS/uL
BASOPHIL [3]: 0%
EOSINOPHIL [3]: 0.67%
ERYTHROCYTE COUNT [3]: 5.4 x10E6/uL
HEMATOCRIT [3]: 34.93%
HEMOGLOBIN [3]: 13.9 G/DL
LYMPHOCYTE [3]: 90.67%
MEAN CORPUSCULAR HEMOGLOBIN [3]: 25.73 pg
MEAN CORPUSCULAR HEMOGLOBIN CONCENTRATION [3]: 39.77 G/DL
MONOCYTE [3]: 1.67%
NEUTROPHIL [3]: 7%
NUCLEATED RED BLOOD CELLS [3]: 0 /100WBC
PLATELET COUNT [3]: 1386.67 x10E3/uL
ALANINE AMINOTRANSFERASE [3]: 49 u/L
ALBUMIN [3]: 4.27 G/DL
ALKALINE PHOSPHATASE [3]: 402.67 u/L
ASPARTATE AMINOTRANSFERASE [3]: 93 u/L
BLOOD UREA NITROGEN [3]: 14.67 mg/dL
CARBON DIOXIDE [3]: 26.67 mmol/L
CHLORIDE [3]: 102.67 MEQ/L
CHOLESTEROL [3]: 65 mg/dL
CREATINE PHOSPHOKINASE [3]: 421.33 u/L
CREATININE [3]: 0.18 mg/dL
GLUCOSE [3]: 152.67 mg/dL
LIPASE [3]: 10 u/L
PHOSPHORUS [3]: 14.3 mg/dL
POTASSIUM [3]: 6.6 MEQ/L
SODIUM [3]: 145.83 MEQ/L
TOTAL BILIRUBIN [3]: 0.17 mg/dL
TOTAL PROTEIN [3]: 5.8 G/DL

Source: ChEMBL document CHEMBL3885881, “DrugMatrix”
